According to patent publication US20150299188A1, “HETEROCYCLIC COMPOUND” (priority 2012, published 2015):

System: FLAP (5-lipoxygenase activating protein)
Test: In vitro binding test: displacement of [3H]-7-chloro-3-(5-((3-fluoropyridin-2-yl)methoxy)-2-methylphenyl)-3,4-dihydroquinazolin-2(1H)-one from Sf9 microsome fractions
Design: species or system human and mouse
Details: Sf9 microsome fractions expressing FLAP; 100% = radioligand binding with 10 μM sodium 3-(3-(tert-butylsulfanyl)-1-(4-chlorobenzyl)-5-isopropyl-1H-indol-2-yl)-2,2-dimethylpropanoate, 0% = DMSO; test compound concentration not given
Summary of the method: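 Sf9 microsomes expressing human or mouse FLAP (2 μg/mL) preincubated with compound 10 min at room temperature, then 120 nM tritiated quinazolinone ligand added for 60 min; buffer 100 mM Tris-HCl pH 7.5 with NaCl, EDTA, DTT, glycerol, Tween20. Bound ligand filtered and counted by scintillation; 10 μM indole propanoate defines 100% inhibition, DMSO 0%.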

Row | Structure (SMILES) | inhibitory rate (%)
1 | Cc1cc2c(cc1N1Cc3c(C(F)(F)F)ncc(Br)c3NC1=O)OC(c1ncccc1F)CC2 (centres unmarked) [Example 87, 8-bromo-3-(2-(3-fluoropyridin-2-yl)-6-methyl-3,4-dihydro-2H-chromen-7-yl)-5-(trifluoromethyl)-3,4-dihydropyrido[4,3-d]pyrimidin-2(1H)-one] | 118%
2 | N#Cc1ccc(OCc2ncccc2F)cc1N1Cc2ccccc2NC1=O [Example 224, 4-((3-fluoropyridin-2-yl)methoxy)-2-(2-oxo-1,4-dihydroquinazolin-3(2H)-yl)benzonitrile] | 87%
3 | O=C1Nc2ccccc2CN1c1cc(OCc2ncccc2F)ccc1CN1CCCC1 [Example 306, 3-(5-((3-fluoropyridin-2-yl)methoxy)-2-(pyrrolidin-1-ylmethyl)phenyl)-3,4-dihydroquinazolin-2(1H)-one] | 74%
4 | COc1ncc(Cl)c2c1NC(=O)N(c1cc3c(cc1C)CCC(c1ncccc1F)O3)C2 (centres unmarked) [Example 156, 5-chloro-3-(2-(3-fluoropyridin-2-yl)-6-methyl-3,4-dihydro-2H-chromen-7-yl)-8-methoxy-3,4-dihydropyrido[3,4-d]pyrimidin-2(1H)-one] | 95%
5 | Cc1noc(-c2cc3c(c(C4CC4)n2)CN(c2cc4c(cc2Cl)CCC(c2ncccc2F)O4)C(=O)N3)n1 (centres unmarked) [Example 121, 3-(6-chloro-2-(3-fluoropyridin-2-yl)-3,4-dihydro-2H-chromen-7-yl)-5-cyclopropyl-7-(3-methyl-1,2,4-oxadiazol-5-yl)-3,4-dihydropyrido[4,3-d]pyrimidin-2(1H)-one] | 111%
6 | Cc1ccc(OCc2ncccc2F)cc1-n1c(=O)[nH]c2cc(Cl)ccc2c1=O [Example 351, 7-chloro-3-(5-((3-fluoropyridin-2-yl)methoxy)-2-methylphenyl)quinazoline-2,4(1H,3H)-dione] | 107%
7 | Cc1cc2c(cc1N1Cc3c(Cl)cnc(-c4ccoc4)c3NC1=O)OC(c1ncccc1F)CC2 (centres unmarked) [Example 164, 5-chloro-3-(2-(3-fluoropyridin-2-yl)-6-methyl-3,4-dihydro-2H-chromen-7-yl)-8-(3-furyl)-3,4-dihydropyrido[3,4-d]pyrimidin-2(1H)-one] | 102%
8 | Cc1ccc(OCc2c(F)cccc2F)cc1N1Cc2ccc(C3=NC(C)(C)C(=O)O3)cc2NC1=O [Example 210, 3-(5-((2,6-difluorobenzyl)oxy)-2-methylphenyl)-7-(4,4-dimethyl-5-oxo-4,5-dihydro-1,3-oxazol-2-yl)-3,4-dihydroquinazolin-2(1H)-one] | 96%
9 | Cc1ccc(OCc2ncccc2F)cc1N1Cc2c(cccc2C(F)(F)F)NC1=O [Example 297, 3-(5-((3-fluoropyridin-2-yl)methoxy)-2-methylphenyl)-5-(trifluoromethyl)-3,4-dihydroquinazolin-2(1H)-one] | 106%
10 | CC(C)(O)c1ccc2c(c1)NC(=O)N(c1cc(OCc3c(F)cccc3F)ccc1CC1CCCCC1)C2 [Example 289, 3-(2-(cyclohexylmethyl)-5-((2,6-difluorobenzyl)oxy)phenyl)-7-(2-hydroxypropan-2-yl)-3,4-dihydroquinazolin-2(1H)-one] | 80%
11 | O=C1Nc2ccnc(Cl)c2CN1c1cc2c(cc1Cl)CC[C@@H](c1ncccc1F)O2 [Example 2, 5-chloro-3-((2S)-6-chloro-2-(3-fluoropyridin-2-yl)-3,4-dihydro-2H-chromen-7-yl)-3,4-dihydropyrido[4,3-d]pyrimidin-2(1H)-one] | 102%
12 | Cc1cc2c(cc1N1Cc3cc(Cl)cnc3NC1=O)OC(c1ncccc1F)CC2 (centres unmarked) [Example 48, 6-chloro-3-(2-(3-fluoropyridin-2-yl)-6-methyl-3,4-dihydro-2H-chromen-7-yl)-3,4-dihydropyrido[2,3-d]pyrimidin-2(1H)-one] | 105%
13 | Cc1ccc(OCc2ncccc2F)cc1N1Cc2c(Cl)cc(C(=O)O)cc2NC1=O [Example 292, 5-chloro-3-(5-((3-fluoropyridin-2-yl)methoxy)-2-methylphenyl)-2-oxo-1,2,3,4-tetrahydroquinazoline-7-carboxylic acid] | 107%
14 | Cc1ccc(OCc2ncccc2F)cc1N1Cc2c(ccnc2C)NC1=O [Example 323, 3-(5-((3-fluoropyridin-2-yl)methoxy)-2-methylphenyl)-5-methyl-3,4-dihydropyrido[4,3-d]pyrimidin-2(1H)-one] | 94%
15 | Cc1ccc(OCc2ncc(F)cc2F)cc1N1Cc2ccccc2NC1=O [Example 247, 3-(5-((3,5-difluoropyridin-2-yl)methoxy)-2-methylphenyl)-3,4-dihydroquinazolin-2(1H)-one] | 99%
16 | Cn1cc(-c2nccc3c2CN(c2cc4c(cc2Cl)CCC(c2ncccc2F)O4)C(=O)N3)cn1 (centres unmarked) [Example 62, 3-(6-chloro-2-(3-fluoropyridin-2-yl)-3,4-dihydro-2H-chromen-7-yl)-5-(1-methyl-1H-pyrazol-4-yl)-3,4-dihydropyrido[4,3-d]pyrimidin-2(1H)-one] | 100%
17 | O=C1Nc2cc(-c3noc(=O)[nH]3)nc(C3CC3)c2CN1c1cc2c(cc1Cl)CCC(c1ncccc1F)O2 (centres unmarked) [Example 103, 3-(6-chloro-2-(3-fluoropyridin-2-yl)-3,4-dihydro-2H-chromen-7-yl)-5-cyclopropyl-7-(5-oxo-4,5-dihydro-1,2,4-oxadiazol-3-yl)-3,4-dihydropyrido[4,3-d]pyrimidin-2(1H)-one] | 94%
18 | Cc1cc2c(cc1N1Cc3c(Cl)cnc(-c4c(C)nn(C)c4C)c3NC1=O)OC(c1ncccc1F)CC2 (centres unmarked) [Example 13, 5-chloro-3-(2-(3-fluoropyridin-2-yl)-6-methyl-3,4-dihydro-2H-chromen-7-yl)-8-(1,3,5-trimethyl-1H-pyrazol-4-yl)-3,4-dihydropyrido[3,4-d]pyrimidin-2(1H)-one] | 101%
19 | Cc1ccc(OCc2ncccc2F)cc1N1Cc2ccc(C(=O)N3CCCC(O)C3)cc2NC1=O (centres unmarked) [Example 227, 3-(5-((3-fluoropyridin-2-yl)methoxy)-2-methylphenyl)-7-((3-hydroxypiperidin-1-yl)carbonyl)-3,4-dihydroquinazolin-2(1H)-one] | 90%
20 | Cc1ccc(OCc2ncccc2F)cc1-n1c(=O)[nH]c2cc([N+](=O)[O-])ccc2c1=O [Example 341, 3-(5-((3-fluoropyridin-2-yl)methoxy)-2-methylphenyl)-7-nitroquinazoline-2,4(1H,3H)-dione] | 102%
21 | Cc1ccc(OCc2ncccc2F)cc1N1Cc2cc(Cl)ccc2NC1=O [Example 243, 6-chloro-3-(5-((3-fluoropyridin-2-yl)methoxy)-2-methylphenyl)-3,4-dihydroquinazolin-2(1H)-one] | 100%
22 | Cc1ccc(OCc2c(F)cccc2F)cc1N1Cc2ccccc2NC1=O [Example 170, 3-(5-((2,6-difluorobenzyl)oxy)-2-methylphenyl)-3,4-dihydroquinazolin-2(1H)-one] | 91%
23 | Cc1cc2c(cc1N1Cc3c(C(F)(F)F)ncc(/C=C/C(=O)O)c3NC1=O)OC(c1ncccc1F)CC2 (centres unmarked) [Example 92, (2E)-3-(3-(2-(3-fluoropyridin-2-yl)-6-methyl-3,4-dihydro-2H-chromen-7-yl)-2-oxo-5-(trifluoromethyl)-1,2,3,4-tetrahydropyrido[4,3-d]pyrimidine-8-yl)acrylic acid] | 106%
24 | Cc1cc2c(cc1N1Cc3c(cc(-n4cc(C(N)=O)cn4)nc3C3CC3)NC1=O)OC(c1ncccc1F)CC2 (centres unmarked) [Example 135, 1-(5-cyclopropyl-3-(2-(3-fluoropyridin-2-yl)-6-methyl-3,4-dihydro-2H-chromen-7-yl)-2-oxo-1,2,3,4-tetrahydropyrido[4,3-d]pyrimidin-7-yl)-1H-pyrazole-4-carboxamide] | 104%
25 | Cc1ncc(Cl)c2c1NC(=O)N(c1cc3c(cc1Cl)CC[C@H](c1ncccc1F)O3)C2 [Example 8, 5-chloro-3-((2R)-6-chloro-2-(3-fluoropyridin-2-yl)-3,4-dihydro-2H-chromen-7-yl)-8-methyl-3,4-dihydropyrido[3,4-d]pyrimidin-2(1H)-one] | 103%
26 | Cc1cc2c(cc1N1Cc3c(Cl)cnc(C)c3NC1=O)OC(c1ncccc1F)CC2 (centres unmarked) [Example 129, 5-chloro-3-(2-(3-fluoropyridin-2-yl)-6-methyl-3,4-dihydro-2H-chromen-7-yl)-8-methyl-3,4-dihydropyrido[3,4-d]pyrimidin-2(1H)-one] | 114%
27 | O=C1Nc2ccnc(C(F)(F)F)c2CN1c1cc2c(cc1F)CCC(c1ncccc1F)O2 (centres unmarked) [Example 68, 3-(6-fluoro-2-(3-fluoropyridin-2-yl)-3,4-dihydro-2H-chromen-7-yl)-5-(trifluoromethyl)-3,4-dihydropyrido[4,3-d]pyrimidin-2(1H)-one] | 113%
28 | CC(C)(O)c1ccc2c(c1)NC(=O)N(c1cc(OCc3c(F)cccc3F)ccc1Cc1ccccn1)C2 [Example 316, 3-(5-((2,6-difluorobenzyl)oxy)-2-(pyridin-2-ylmethyl)phenyl)-7-(2-hydroxypropan-2-yl)-3,4-dihydroquinazolin-2(1H)-one] | 50%
29 | CC(C)(C)Cc1ccc(OCc2c(F)cccc2F)cc1N1Cc2ccc(CO)cc2NC1=O [Example 294, 3-(5-((2,6-difluorobenzyl)oxy)-2-(2,2-dimethylpropyl)phenyl)-7-(hydroxymethyl)-3,4-dihydroquinazolin-2(1H)-one] | 65%
